From ChEMBL document CHEMBL4004838, “Design and synthesis of novel phenyl -1, 4-beta-carboline-hybrid molecules as potential anticancer agents” (Eur J Med Chem, 2017)

Assays:
Assay type in all cases: functional
MDA-MB-468 = experiment: Growth inhibition of human MDA-MB-468 cells assessed as cell growth at 0.1 uM incubated for 48 hrs by sulforhodamine B assay relative to control; conditions: MDA-MB-468, 48 h, read-out: Activity
HCT-15 = experiment: Growth inhibition of human HCT15 cells assessed as cell growth at 100 uM incubated for 48 hrs by sulforhodamine B assay relative to control; conditions: HCT-15, 48 h, read-out: Activity
786-0 = experiment: Growth inhibition of human 786-0 cells assessed as cell growth at 100 uM incubated for 48 hrs by sulforhodamine B assay relative to control; conditions: 786-0, 48 h, read-out: Activity
NCI-H460 [1] = experiment: Growth inhibition of human NCI-H460 cells assessed as cell growth at 0.01 uM incubated for 48 hrs by sulforhodamine B assay relative to control; conditions: NCI-H460, 48 h, read-out: Activity
OVCAR-5 [2] = experiment: Growth inhibition of human OVCAR5 cells assessed as cell growth at 100 uM incubated for 48 hrs by sulforhodamine B assay relative to control; conditions: OVCAR-5, 48 h, read-out: Activity
RPMI-8226 [3] = experiment: Growth inhibition of human RPMI8226 cells assessed as cell growth at 0.01 uM incubated for 48 hrs by sulforhodamine B assay relative to control; conditions: RPMI-8226, 48 h, read-out: Activity
SK-MEL-2 = experiment: Growth inhibition of human SK-MEL-2 cells assessed as cell growth at 0.01 uM incubated for 48 hrs by sulforhodamine B assay relative to control; conditions: SK-MEL-2, 48 h, read-out: Activity
ACHN = experiment: Growth inhibition of human ACHN cells assessed as cell growth at 100 uM incubated for 48 hrs by sulforhodamine B assay relative to control; conditions: read-out: Activity
Hs-578T = experiment: Growth inhibition of human Hs 578T cells assessed as cell growth at 1 uM incubated for 48 hrs by sulforhodamine B assay relative to control; conditions: read-out: Activity
OVCAR-4 = experiment: Growth inhibition of human OVCAR4 cells assessed as cell growth at 1 uM incubated for 48 hrs by sulforhodamine B assay relative to control; conditions: OVCAR-4, 48 h, read-out: Activity
RPMI-8226 [4] = experiment: Growth inhibition of human RPMI8226 cells assessed as cell growth at 0.1 uM incubated for 48 hrs by sulforhodamine B assay relative to control; conditions: RPMI-8226, 48 h, read-out: Activity
A498 = experiment: Growth inhibition of human A498 cells assessed as cell growth at 100 uM incubated for 48 hrs by sulforhodamine B assay relative to control; conditions: A498, 48 h, read-out: Activity
OVCAR-5 [5] = experiment: Growth inhibition of human OVCAR5 cells assessed as cell growth at 0.01 uM incubated for 48 hrs by sulforhodamine B assay relative to control; conditions: OVCAR-5, 48 h, read-out: Activity
SW-620 = experiment: Growth inhibition of human SW620 cells assessed as cell growth at 100 uM incubated for 48 hrs by sulforhodamine B assay relative to control; conditions: SW-620, 48 h, read-out: Activity
HOP-62 [6] = experiment: Growth inhibition of human HOP62 cells assessed as cell growth at 100 uM incubated for 48 hrs by sulforhodamine B assay relative to control; conditions: HOP-62, 48 h, read-out: Activity
SK-MEL-5 = experiment: Growth inhibition of human SK-MEL-5 cells assessed as cell growth at 0.1 uM incubated for 48 hrs by sulforhodamine B assay relative to control; conditions: SK-MEL-5, 48 h, read-out: Activity
UO-31 = experiment: Growth inhibition of human UO31 cells assessed as cell growth at 1 uM incubated for 48 hrs by sulforhodamine B assay relative to control; conditions: UO-31, 48 h, read-out: Activity
CCRF-CEM = experiment: Growth inhibition of human CCRF-CEM cells assessed as cell growth at 100 uM incubated for 48 hrs by sulforhodamine B assay relative to control; conditions: read-out: Activity
SK-OV-3 = experiment: Growth inhibition of human SKOV3 cells assessed as cell growth at 0.01 uM incubated for 48 hrs by sulforhodamine B assay relative to control; conditions: SK-OV-3, 48 h, read-out: Activity
SF-268 = experiment: Growth inhibition of human SF268 cells assessed as cell growth at 0.01 uM incubated for 48 hrs by sulforhodamine B assay relative to control; conditions: SF-268, 48 h, read-out: Activity
NCI-H460 [7] = experiment: Growth inhibition of human NCI-H460 cells assessed as cell growth at 100 uM incubated for 48 hrs by sulforhodamine B assay relative to control; conditions: NCI-H460, 48 h, read-out: Activity
SF-295 = experiment: Growth inhibition of human SF295 cells assessed as cell growth at 1 uM incubated for 48 hrs by sulforhodamine B assay relative to control; conditions: SF-295, 48 h, read-out: Activity
DU-145 = experiment: Growth inhibition of human DU145 cells assessed as cell growth at 1 uM incubated for 48 hrs by sulforhodamine B assay relative to control; conditions: DU-145, 48 h, read-out: Activity
MCF7 = experiment: Growth inhibition of human MCF7 cells assessed as cell growth at 0.1 uM incubated for 48 hrs by sulforhodamine B assay relative to control; conditions: MCF7, 48 h, read-out: Activity
MDA-MB-435 = experiment: Growth inhibition of human MDA-MB-435 cells assessed as cell growth at 0.1 uM incubated for 48 hrs by sulforhodamine B assay relative to control; conditions: MDA-MB-435, 48 h, read-out: Activity
NCI-H226 = experiment: Growth inhibition of human NCI-H226 cells incubated for 48 hrs by sulforhodamine B assay; conditions: NCI-H226, 48 h
LOX IMVI = experiment: Growth inhibition of human LOXIMVI cells assessed as cell growth at 1 uM incubated for 48 hrs by sulforhodamine B assay relative to control; conditions: read-out: Activity
CAKI-1 = experiment: Growth inhibition of human Caki1 cells assessed as cell growth at 0.01 uM incubated for 48 hrs by sulforhodamine B assay relative to control; conditions: CAKI-1, 48 h, read-out: Activity
HCT-116 = experiment: Growth inhibition of human HCT116 cells assessed as cell growth at 100 uM incubated for 48 hrs by sulforhodamine B assay relative to control; conditions: HCT-116, 48 h, read-out: Activity
NCI-H23 = experiment: Growth inhibition of human NCI-H23 cells assessed as cell growth at 1 uM incubated for 48 hrs by sulforhodamine B assay relative to control; conditions: NCI-H23, 48 h, read-out: Activity
NCI-H460 [8] = experiment: Growth inhibition of human NCI-H460 cells incubated for 48 hrs by sulforhodamine B assay; conditions: NCI-H460, 48 h
HOP-62 [9] = experiment: Growth inhibition of human HOP62 cells assessed as cell growth at 0.01 uM incubated for 48 hrs by sulforhodamine B assay relative to control; conditions: HOP-62, 48 h, read-out: Activity
[10] = read-out: LC50 (the source's name)
[11] = read-out: pLC50 (the source's name) (converted)

## c1ccc2[nH]c(-c3ccc(-c4nccc5c4[nH]c4ccccc45)cc3)nc2c1
MDA-MB-468
  growth at 0.1 µM: 99%
HCT-15
  growth at 100 µM: 71%
786-0
  growth at 100 µM: 70%
NCI-H460 [1]
  growth at 0.01 µM: 107%
OVCAR-5 [2]
  growth at 100 µM: 62%
RPMI-8226 [3]
  growth at 0.01 µM: 106%
SK-MEL-2
  growth at 0.01 µM: 95%
ACHN
  growth at 100 µM: 98%
Hs-578T
  growth at 1 µM: 91%
OVCAR-4
  growth at 1 µM: 83%
RPMI-8226 [4]
  growth at 0.1 µM: 105%
A498
  growth at 100 µM: 85%
OVCAR-5 [5]
  growth at 0.01 µM: 94%
SW-620
  growth at 100 µM: 33%
HOP-62 [6]
  growth at 100 µM: 70%
SK-MEL-5
  growth at 0.1 µM: 100%
UO-31
  growth at 1 µM: 90%
CCRF-CEM
  growth at 100 µM: 29%
SK-OV-3
  growth at 0.01 µM: 93%
SF-268
  growth at 0.01 µM: 97%
NCI-H460 [7]
  growth at 100 µM: 38%
SF-295
  growth at 1 µM: 94%
DU-145
  growth at 1 µM: 97%
MCF7
  growth at 0.1 µM: 96%
MDA-MB-435
  growth at 0.1 µM: 93%
NCI-H226; read-out: GI50
  GI50: 2.27 µM
NCI-H226; [10]
  CC50: 9.73 µM
NCI-H226; read-out: TGI
  TGI: 5.56 µM
NCI-H226; read-out: pGI50 (converted)
  GI50: 2.29 µM
NCI-H226; [11]
  CC50: 97.7 µM
NCI-H226; read-out: pTGI (converted)
  TGI: 5.5 µM
LOX IMVI
  growth at 1 µM: 81%
CAKI-1
  growth at 0.01 µM: 91%
HCT-116
  growth at 100 µM: 78%
NCI-H23
  growth at 1 µM: 88%
NCI-H460 [8]; read-out: GI50
  GI50: 3.03 µM
NCI-H460 [8]; [10]
  CC50: > 1 µM
NCI-H460 [8]; read-out: TGI
  TGI: 9.8 µM
NCI-H460 [8]; read-out: pGI50 (converted)
  GI50: 3.02 µM
NCI-H460 [8]; [11]
  CC50: > 100 µM
NCI-H460 [8]; read-out: pTGI (converted)
  TGI: 9.77 µM
HOP-62 [9]
  growth at 0.01 µM: 86%

## c1ccc2c3c([nH]c2c1)C(c1ccc(C2NCCc4c2[nH]c2ccccc42)cc1)NCC3 (racemic)
MDA-MB-468
  growth at 0.1 µM: 100%
HCT-15
  growth at 100 µM: 90%
786-0
  growth at 100 µM: -85%
NCI-H460 [1]
  growth at 0.01 µM: 105%
OVCAR-5 [2]
  growth at 100 µM: 90%
RPMI-8226 [3]
  growth at 0.01 µM: 102%
SK-MEL-2
  growth at 0.01 µM: 100%
ACHN
  growth at 100 µM: -91%
Hs-578T
  growth at 1 µM: 68%
OVCAR-4
  growth at 1 µM: 59%
RPMI-8226 [4]
  growth at 0.1 µM: 105%
A498
  growth at 100 µM: -85%
OVCAR-5 [5]
  growth at 0.01 µM: 91%
SW-620
  growth at 100 µM: 87%
HOP-62 [6]
  growth at 100 µM: 83%
SK-MEL-5
  growth at 0.1 µM: 101%
UO-31
  growth at 1 µM: 52%
CCRF-CEM
  growth at 100 µM: 68%
SK-OV-3
  growth at 0.01 µM: 91%
SF-268
  growth at 0.01 µM: 92%
NCI-H460 [7]
  growth at 100 µM: 85%
SF-295
  growth at 1 µM: 84%
DU-145
  growth at 1 µM: 43%
MCF7
  growth at 0.1 µM: 90%
MDA-MB-435
  growth at 0.1 µM: 99%
NCI-H226; read-out: GI50
  GI50: 1.96 µM
NCI-H226; [10]
  CC50: 9.1 µM
NCI-H226; read-out: TGI
  TGI: 4.23 µM
NCI-H226; read-out: pGI50 (converted)
  GI50: 1.95 µM
NCI-H226; [11]
  CC50: 9.12 µM
NCI-H226; read-out: pTGI (converted)
  TGI: 4.27 µM
LOX IMVI
  growth at 1 µM: 48%
CAKI-1
  growth at 0.01 µM: 90%
HCT-116
  growth at 100 µM: 92%
NCI-H23
  growth at 1 µM: 85%
NCI-H460 [8]; read-out: GI50
  GI50: 2.21 µM
NCI-H460 [8]; [10]
  CC50: 9.12 µM
NCI-H460 [8]; read-out: TGI
  TGI: 4.49 µM
NCI-H460 [8]; read-out: pGI50 (converted)
  GI50: 0.219 µM
NCI-H460 [8]; [11]
  CC50: 0.912 µM
NCI-H460 [8]; read-out: pTGI (converted)
  TGI: 4.47 µM
HOP-62 [9]
  growth at 0.01 µM: 84%
